How the values were obtained:
[1] = system: rat aortic ring smooth muscle; test: In vitro smooth muscle relaxant activity assay (rat aortic ring) in the presence of Cys and L-NAME; assay type: cell-based; details: for EC50: rat aortic rings precontracted with phenylephrine (0.3 uM), in the presence of cysteine and L-NAME, read-out: Relaxation, EC50
Protocol: The rat aortic ring assay was utilized as a bioassay to measure the relaxant activity. The rings were precontracted with phenylephrine (0.3 uM) and subsequently compounds were added to the tissue bath in the presence of cysteine (Cys) and N^G -L-nitroarginine methyl ester (L-NAME): A.In vitro smooth muscle relaxant activity assay in the presence of Cys and L-NAME: […]

[2] = system: prostaglandin E2 (PGE2) synthesis in Human fetal fibroblast cells; test: In vitro inhibition of prostaglandin E2 (PGE2) synthesis assay; assay type: cell-based; details: IL-1 for 16 hours, compound 10 uM given with IL-1, ELISA, Basal 0.6, IL-1 alone 9.4
Protocol: B. In vitro inhibiton of prostaglandin E2 (PGE2) synthesis assay: Human fetal fibroblast cells were treated with IL-1 for 16 hours and prostaglandin E2 was measured by an ELISA. Compounds were given at the time of addition of IL-1. This assay provides an in vitro assessment of the compound to block the induction of the proinflammatory agent prostaglandin E2 (PGE2): […]

Structure (SMILES)	smooth muscle relaxant activity (in words) ([1]; rat aortic ring, precontracted with phenylephrine, Cys and L-NAME)	EC50 [1] [µM]	PGE2 [2] [ng]
CCC(=O)OCC(=O)[C@@]1(OC(=O)CC)[C@@H](C)C[C@H]2[C@@H]3CCC4=CC(=O)C=C[C@]4(C)[C@@]3(Cl)[C@@H](O)C[C@@]21C [Beclomethasone-dipropionate, reference compound]	did not show any effect	100	–
C[C@@H]1C[C@H]2[C@@H]3CCC4=CC(=O)C=C[C@]4(C)[C@@]3(F)[C@@H](O)C[C@]2(C)[C@@]1(O)C(=O)CO [Dexamethasone, reference compound]	–	–	0.6
CCC(=O)OCC(=O)[C@@]1(OC(=O)CC)[C@@H](C)C[C@H]2[C@@H]3CCC4=CC(=O)C=C[C@]4(C)[C@@]3(Cl)[C@@H](OC(=O)CCC(=O)O[C@H]3CO[C@H]4[C@@H]3OC[C@H]4O[N+](=O)[O-])C[C@@]21C [Example 1]	–	> 10	0.5
C[C@]12C=CC(=O)C=C1CC[C@@H]1[C@@H]2[C@@H](O)C[C@@]2(C)[C@H]1CC[C@]2(O)C(=O)COC(=O)CCC(=O)O[C@H]1CO[C@H]2[C@@H]1OC[C@H]2O[N+](=O)[O-] [Example 21]	–	3	0.4

— patent US5837698A, “Steroid nitrite and nitrate ester derivatives useful as anti-inflammatory drugs” (G. D. Searle & Co., priority 1996, dated 1998)
